Results from patent US10787442B2, “Modulators of indoleamine 2,3-dioxygenase” (GLAXOSMITHKLINE INTELLECTUAL PROPERTY DEVELOPMENT LIMITED, priority 2016, dated 2020).
Where two headings read alike, the source gives them in different places.

What was measured:
[1] = target: indoleamine 2, 3-dioxygenase (IDO1) (Homo sapiens, UniProt P14902); assay: IDO1 HeLa RapidFire MS Assay (kynurenine by mass spectrometry); assay type: cell-based; conditions: HeLa cells stimulated with IFN-γ, 2 days; recorded as pIC50; read-out: IDO1 HeLa PXC50 (converted)
Experimental: IDO1 HeLa RapidFire MS Assay
(§1) Compounds of the present invention were tested via high-throughput cellular assays utilizing detection of kynurenine via mass spectrometry and cytotoxicity as end-points. […] Compounds with IDO1 inhibitory properties decreased the amount of kynurenine produced by the cells via the tryptophan catabolic pathway. Cellular toxicity due to the effect of compound treatment was measured using CellTiter-Glo® reagent (CTG) (Promega Corporation, Madison, Wis.), which is based on luminescent detection of ATP, an indicator of metabolically active cells.
(§2) In preparation for the assays, test compounds were serially diluted 3-fold in DMSO from a typical top concentration of 1 mM or 5 mM and plated at 0.5 μL in 384-well, polystyrene, clear bottom, tissue culture treated plates with lids (Greiner Bio-One, Kremsmünster, Austria) to generate 11-point dose response curves. Low control wells (0% kynurenine or 100% cytotoxicity) contained either 0.5 μL of DMSO in the presence of unstimulated (−IFN-γ) HeLa cells for the mass spectrometry assay or 0.5 μL of DMSO in the absence of cells for the cytotoxicity assay, and high control wells (100% kynurenine or 0% cytotoxicity) contained 0.5 μL of DMSO in the presence of stimulated (+IFN-γ) HeLa cells for both the mass spectrometry and cytotoxicity assays.
(§3) Frozen stocks of HeLa cells were washed and recovered in DMEM high glucose medium with HEPES (Thermo Fisher Scientific, Inc., Waltham, Mass.) supplemented with 10% v/v certified fetal bovine serum (FBS) (Thermo Fisher Scientific, Inc., Waltham, Mass.), and 1× penicillin-streptomycin antibiotic solution (Thermo Fisher Scientific, Inc., Waltham, Mass.). The cells were diluted to 100,000 cells/mL in the supplemented DMEM medium. 50 μL of either the cell suspension, for the mass spectrometry assay, or medium alone, for the cytotoxicity assay, were added to the low control wells, on the previously prepared 384-well compound plates, resulting in 5,000 cells/well or 0 cells/well respectively. IFN-γ was added to the remaining cell suspension at a final concentration of 10 nM, and 50 μL of the stimulated cells were added to all remaining wells on the 384-well compound plates. The plates, with lids, were then placed in a 37° C., 5% CO2 humidified incubator for 2 days.
(§4) Following incubation, the 384-well plates were removed from the incubator and allowed to equilibrate to room temperature for 30 minutes. For the cytotoxicity assay, CellTiter-Glo® was prepared according to the manufacturer's instructions, and 10 μL were added to each plate well. After a twenty minute incubation at room temperature, luminescence was read on an EnVision® Multilabel Reader (PerkinElmer Inc., Waltham, Mass.). For the mass spectrometry assay, 10 μL of supernatant from each well of the compound-treated plates were added to 40 μL of acetonitrile, containing 10 μM of an internal standard for normalization, in 384-well, polypropylene, V-bottom plates (Greiner Bio-One, Kremsmünster, Austria) to extract the organic analytes. Following centrifugation at 2000 rpm for 10 minutes, 10 μL from each well of the acetonitrile extraction plates were added to 90 μL of sterile, distilled H2O in 384-well, polypropylene, V-bottom plates for analysis of kynurenine and the internal standard on the RapidFire 300 (Agilent Technologies, Santa Clara, Calif.) and 4000 QTRAP MS (SCIEX, Framingham, Mass.). MS data were integrated using Agilent Technologies' RapidFire Integrator software, and data were normalized for analysis as a ratio of kynurenine to the internal standard.

[2] = test system: human epithelial HeLa cells; assay: HeLa cytotoxicity assay (CellTiter-Glo); assay type: cell-based; conditions: cytotoxicity in stimulated HeLa cells, recorded as pCC50
Experimental: as §1, §2, §3, §4

[3] = Toxicokinetics in Beagle dogs, 7 day repeat oral administration; assay type: in vivo, Beagle dog; conditions: for Tmax / Cmax / AUC(0-t): Beagle, dog, plasma; for Therapeutic Index AUC (0-12 hr): versus predicted human efficacious AUC; for Therapeutic Index Cmax: versus predicted human efficacious Cmax; for Cmax / AUC(0-t): po; for AUC(0-t): read-out: AUC (0-12 hr)
Text: To understand its toxicokinetics and potential effect on hepatic functions, EXAMPLE 6 was orally dosed to Beagle dogs for 7 consecutive days.

[4] = female, 20 mg/kg, Day1, Female, 20 mg/kg PO BID
[5] = female, 20 mg/kg, Day7, Female, 20 mg/kg PO BID
[6] = male, 20 mg/kg, Day1, Male, 20 mg/kg PO BID
[7] = male, 20 mg/kg, Day7, Male, 20 mg/kg PO BID

Sequence of indoleamine 2, 3-dioxygenase (IDO1) (P14902 whole entry): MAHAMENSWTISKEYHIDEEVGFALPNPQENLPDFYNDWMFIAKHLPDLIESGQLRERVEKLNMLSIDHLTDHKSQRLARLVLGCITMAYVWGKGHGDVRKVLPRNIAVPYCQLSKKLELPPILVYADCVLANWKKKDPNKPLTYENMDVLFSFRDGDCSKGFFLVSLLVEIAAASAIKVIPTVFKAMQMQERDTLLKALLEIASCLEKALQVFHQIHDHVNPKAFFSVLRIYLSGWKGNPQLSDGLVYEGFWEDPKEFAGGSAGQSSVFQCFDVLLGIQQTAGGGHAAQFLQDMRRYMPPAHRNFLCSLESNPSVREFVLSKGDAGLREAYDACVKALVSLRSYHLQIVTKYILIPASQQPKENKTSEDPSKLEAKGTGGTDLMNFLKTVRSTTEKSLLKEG

CC(C)CN(c1ncc([C@H](C)CC(=O)O)cc1Nc1ccc(Cl)cn1)C1CCOCC1 [Example 6, (R)-3-(5-((5-chloropyridin-2-yl)amino)-6-(isobutyl(tetrahydro-2H-pyran-4-yl)amino)pyridin-3-yl)butanoic acid]
IC50 [1]: 7.94 nM
HELA_IDO1_TOX_PXC50 [2]: <5
Tmax ([3]; oral, 20 mg/kg, post dose on Days 1 and 7): 30 min
Tmax ([3]; Day1, Female, 20 mg/kg PO BID): 30 min
Tmax ([3]; Day1, Male, 20 mg/kg PO BID): 30 min
Therapeutic Index AUC (0-12 hr) ([3]; Day1, Female, 20 mg/kg): 15
Therapeutic Index Cmax ([3]; Day1, Female, 20 mg/kg): 86
Therapeutic Index AUC (0-12 hr) ([3]; Day1, Male, 20 mg/kg): 25
Therapeutic Index Cmax ([3]; Day1, Male, 20 mg/kg): 237
average therapeutic coverage in AUC for the predicted human efficacious dose ([3]; Day 7): ~34 fold
average therapeutic coverage in Cmax for the predicted human efficacious dose ([3]; Day 7): ~147 fold
Therapeutic Index AUC (0-12 hr) ([3]; Day7, Female, 20 mg/kg): 51
Therapeutic Index Cmax ([3]; Day7, Female, 20 mg/kg): 102
Therapeutic Index AUC (0-12 hr) ([3]; Day7, Male, 20 mg/kg): 18
Therapeutic Index Cmax ([3]; Day7, Male, 20 mg/kg): 191
quantifiable in plasma post the start of the oral dose ([3]; Days 1 and 7): up to 24 hours
Cmax on Days 1 and 7 ([3]; female dog): comparable
increase in AUC0-12 following 7 day repeat dosing ([3]; female dog): ~3 fold
Cmax [3, 4]: 3700 ng/mL
AUC(0-t) [3, 4]: 5200 ng·h/mL
Cmax [3, 5]: 4400 ng/mL
AUC(0-t) [3, 5]: 17900 ng·h/mL
systemic exposure (Cmax and AUC0-12 values) on Days 1 and 7 ([3]; male dog): similar
Cmax [3, 6]: 10200 ng/mL
AUC(0-t) [3, 6]: 8700 ng·h/mL
Cmax [3, 7]: 8200 ng/mL
AUC(0-t) [3, 7]: 6500 ng·h/mL
